Like-named read-outs stand apart in the source and are kept apart here.
How the values were obtained:
Assay in all cases: β-arrestin based GPCR screen (PathHunter / GPCRmax), agonist mode
Type in all cases: cell-based
Design in all cases: host or cells: PathHunter cell lines
168 GPCRs [1] = target: 168 GPCRs (Homo sapiens, UniProt Q96LB1)
Protocol: (§1) For agonist determination, cells were incubated with sample to induce response. […] Vehicle concentration was 1%.

168 GPCRs [2] = target: 168 GPCRs (Homo sapiens, UniProt Q9H3N8)
168 GPCRs (Homo sapiens, UniProt Q9H3N8), sequence (Q9H3N8 whole entry): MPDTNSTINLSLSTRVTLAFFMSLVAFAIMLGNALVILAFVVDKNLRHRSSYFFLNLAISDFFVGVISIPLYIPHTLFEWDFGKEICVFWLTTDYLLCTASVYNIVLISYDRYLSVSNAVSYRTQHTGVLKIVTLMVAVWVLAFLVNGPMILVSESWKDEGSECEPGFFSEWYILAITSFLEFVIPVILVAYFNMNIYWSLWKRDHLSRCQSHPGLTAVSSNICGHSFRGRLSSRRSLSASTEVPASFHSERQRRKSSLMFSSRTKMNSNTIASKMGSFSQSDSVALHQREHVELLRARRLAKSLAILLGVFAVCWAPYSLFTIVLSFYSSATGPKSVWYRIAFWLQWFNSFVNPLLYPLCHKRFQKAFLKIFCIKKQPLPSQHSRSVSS
Protocol: as §1

168 GPCRs [3] = target: 168 GPCRs (Homo sapiens, UniProt P08172); conditions: CHRM2, Agonist
168 GPCRs (Homo sapiens, UniProt P08172), sequence (P08172 whole entry): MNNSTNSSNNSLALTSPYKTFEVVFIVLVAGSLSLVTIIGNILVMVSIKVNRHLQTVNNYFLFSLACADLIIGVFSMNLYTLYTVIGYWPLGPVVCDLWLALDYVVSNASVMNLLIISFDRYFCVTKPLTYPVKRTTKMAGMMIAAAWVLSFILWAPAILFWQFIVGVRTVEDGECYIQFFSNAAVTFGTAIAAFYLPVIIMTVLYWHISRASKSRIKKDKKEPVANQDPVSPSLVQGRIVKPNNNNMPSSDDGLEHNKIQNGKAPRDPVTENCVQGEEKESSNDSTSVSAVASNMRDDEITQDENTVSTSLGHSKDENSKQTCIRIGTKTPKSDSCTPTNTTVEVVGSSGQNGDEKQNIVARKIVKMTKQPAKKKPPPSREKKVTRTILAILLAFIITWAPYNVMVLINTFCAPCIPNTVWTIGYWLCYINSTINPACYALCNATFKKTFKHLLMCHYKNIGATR
Protocol: as §1

168 GPCRs [4] = target: 168 GPCRs (Homo sapiens, UniProt P30988); conditions: Agonist
168 GPCRs (Homo sapiens, UniProt P30988), sequence (P30988 25-474): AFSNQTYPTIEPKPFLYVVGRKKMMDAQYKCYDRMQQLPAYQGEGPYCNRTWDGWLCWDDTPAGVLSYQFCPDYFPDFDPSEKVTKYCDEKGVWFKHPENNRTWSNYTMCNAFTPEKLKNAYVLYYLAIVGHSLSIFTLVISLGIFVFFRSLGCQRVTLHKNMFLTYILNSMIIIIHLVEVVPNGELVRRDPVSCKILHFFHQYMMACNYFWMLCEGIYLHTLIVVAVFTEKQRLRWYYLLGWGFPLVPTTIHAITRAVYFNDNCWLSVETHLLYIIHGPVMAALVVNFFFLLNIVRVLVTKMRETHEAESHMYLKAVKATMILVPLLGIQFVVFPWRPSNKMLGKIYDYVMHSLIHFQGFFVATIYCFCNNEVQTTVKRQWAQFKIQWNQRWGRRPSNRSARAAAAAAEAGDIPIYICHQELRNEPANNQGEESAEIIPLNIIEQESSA
Protocol: as §1

168 GPCRs [5] = target: 168 GPCRs (Homo sapiens, UniProt P51685); conditions: CCR8, Agonist
Protocol: as §1

168 GPCRs [6] = target: 168 GPCRs (Homo sapiens, UniProt Q01726); conditions: MC1R
Protocol: as §1

168 GPCRs [7] = target: T1, 168 GPCRs (Homo sapiens, UniProt P08173); conditions: CHRM4, Agonist
T1 sequence (P08173 1-479): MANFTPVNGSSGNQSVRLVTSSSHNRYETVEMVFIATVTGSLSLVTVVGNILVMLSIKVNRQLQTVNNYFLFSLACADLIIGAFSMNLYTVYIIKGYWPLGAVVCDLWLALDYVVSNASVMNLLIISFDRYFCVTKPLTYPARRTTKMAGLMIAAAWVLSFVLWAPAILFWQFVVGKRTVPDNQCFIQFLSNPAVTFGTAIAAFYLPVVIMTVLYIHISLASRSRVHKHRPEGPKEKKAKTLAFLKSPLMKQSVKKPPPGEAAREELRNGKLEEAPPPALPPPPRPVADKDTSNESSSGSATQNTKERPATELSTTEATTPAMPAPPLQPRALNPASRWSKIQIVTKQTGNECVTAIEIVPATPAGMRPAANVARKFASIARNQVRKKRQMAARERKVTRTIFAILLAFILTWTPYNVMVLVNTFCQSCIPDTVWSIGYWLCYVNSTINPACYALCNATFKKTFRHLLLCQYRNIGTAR
Protocol: as §1

168 GPCRs [8] = target: 168 GPCRs (Homo sapiens, UniProt P48146)
Protocol: as §1

168 GPCRs [9] = target: 168 GPCRs (Homo sapiens, UniProt Q9HBW0)
168 GPCRs (Homo sapiens, UniProt Q9HBW0), sequence (Q9HBW0 whole entry): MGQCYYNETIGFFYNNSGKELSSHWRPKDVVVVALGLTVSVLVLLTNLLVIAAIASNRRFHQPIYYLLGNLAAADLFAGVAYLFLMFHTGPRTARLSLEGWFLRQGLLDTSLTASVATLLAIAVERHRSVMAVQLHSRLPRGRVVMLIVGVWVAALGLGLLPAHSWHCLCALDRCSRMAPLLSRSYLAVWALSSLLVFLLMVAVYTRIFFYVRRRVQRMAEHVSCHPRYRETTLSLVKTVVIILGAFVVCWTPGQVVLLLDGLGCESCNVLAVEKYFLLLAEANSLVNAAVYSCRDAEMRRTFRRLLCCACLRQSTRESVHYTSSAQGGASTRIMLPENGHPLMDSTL
Protocol: as §1

168 GPCRs [10] = target: 168 GPCRs (Homo sapiens, UniProt P25103)
168 GPCRs (Homo sapiens, UniProt P25103), sequence (P25103 whole entry): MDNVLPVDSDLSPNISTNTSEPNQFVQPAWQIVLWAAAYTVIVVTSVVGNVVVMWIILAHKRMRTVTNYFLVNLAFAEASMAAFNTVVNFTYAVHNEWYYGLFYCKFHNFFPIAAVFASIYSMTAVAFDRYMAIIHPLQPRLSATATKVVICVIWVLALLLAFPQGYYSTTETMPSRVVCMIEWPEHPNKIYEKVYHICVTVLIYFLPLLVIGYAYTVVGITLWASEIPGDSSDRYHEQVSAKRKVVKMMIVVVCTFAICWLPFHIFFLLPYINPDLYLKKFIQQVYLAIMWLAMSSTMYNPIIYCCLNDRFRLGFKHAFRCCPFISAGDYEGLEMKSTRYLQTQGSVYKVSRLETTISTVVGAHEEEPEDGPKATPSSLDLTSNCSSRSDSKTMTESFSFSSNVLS
Protocol: as §1

168 GPCRs [11] = target: 168 GPCRs (Homo sapiens, UniProt Q969F8); conditions: KISS1R
168 GPCRs (Homo sapiens, UniProt Q969F8), sequence (Q969F8 whole entry): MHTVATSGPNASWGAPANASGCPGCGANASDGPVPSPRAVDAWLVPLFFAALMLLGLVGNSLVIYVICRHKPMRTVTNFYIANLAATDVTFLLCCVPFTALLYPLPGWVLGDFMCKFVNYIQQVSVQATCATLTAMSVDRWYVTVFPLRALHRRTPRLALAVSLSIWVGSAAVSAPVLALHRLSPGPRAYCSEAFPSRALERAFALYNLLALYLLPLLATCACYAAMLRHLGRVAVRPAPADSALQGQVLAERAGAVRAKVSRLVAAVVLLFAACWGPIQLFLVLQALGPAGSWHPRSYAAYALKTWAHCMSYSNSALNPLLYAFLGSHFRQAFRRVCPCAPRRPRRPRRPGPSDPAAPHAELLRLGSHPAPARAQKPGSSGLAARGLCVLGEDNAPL
Protocol: as §1

168 GPCRs [12] = target: 168 GPCRs (Homo sapiens, UniProt P30559); conditions: OXTR
Protocol: as §1

168 GPCRs [13] = target: 168 GPCRs (Homo sapiens, UniProt Q9HB89); conditions: NMU1R
168 GPCRs (Homo sapiens, UniProt Q9HB89), sequence (Q9HB89 whole entry): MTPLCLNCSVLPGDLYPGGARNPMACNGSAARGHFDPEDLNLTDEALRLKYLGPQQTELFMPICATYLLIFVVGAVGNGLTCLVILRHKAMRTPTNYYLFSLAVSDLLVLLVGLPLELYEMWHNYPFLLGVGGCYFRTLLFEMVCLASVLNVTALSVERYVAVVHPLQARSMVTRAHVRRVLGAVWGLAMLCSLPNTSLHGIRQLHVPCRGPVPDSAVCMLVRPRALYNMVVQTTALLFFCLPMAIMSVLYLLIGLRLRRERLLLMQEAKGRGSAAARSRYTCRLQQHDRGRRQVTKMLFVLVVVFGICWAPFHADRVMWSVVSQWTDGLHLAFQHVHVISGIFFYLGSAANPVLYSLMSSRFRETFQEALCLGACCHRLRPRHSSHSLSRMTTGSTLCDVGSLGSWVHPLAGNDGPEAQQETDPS
Protocol: as §1

168 GPCRs [14] = target: 168 GPCRs (Homo sapiens, UniProt P48546); conditions: GIPR
168 GPCRs (Homo sapiens, UniProt P48546), sequence (P48546 22-466): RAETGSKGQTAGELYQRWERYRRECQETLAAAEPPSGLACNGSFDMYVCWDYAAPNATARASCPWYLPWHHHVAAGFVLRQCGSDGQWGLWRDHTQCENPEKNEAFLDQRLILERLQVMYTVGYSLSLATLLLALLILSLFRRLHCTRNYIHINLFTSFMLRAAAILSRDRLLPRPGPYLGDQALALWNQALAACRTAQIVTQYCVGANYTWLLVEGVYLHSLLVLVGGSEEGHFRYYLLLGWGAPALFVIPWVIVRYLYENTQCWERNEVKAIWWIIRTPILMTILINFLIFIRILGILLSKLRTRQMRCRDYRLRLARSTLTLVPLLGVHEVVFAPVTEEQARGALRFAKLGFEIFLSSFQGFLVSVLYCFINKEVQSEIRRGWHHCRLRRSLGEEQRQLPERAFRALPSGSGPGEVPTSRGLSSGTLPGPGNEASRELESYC
Protocol: as §1

168 GPCRs [15] = target: 168 GPCRs (Homo sapiens, UniProt P43119); conditions: PTGIR
168 GPCRs (Homo sapiens, UniProt P43119), sequence (P43119 whole entry): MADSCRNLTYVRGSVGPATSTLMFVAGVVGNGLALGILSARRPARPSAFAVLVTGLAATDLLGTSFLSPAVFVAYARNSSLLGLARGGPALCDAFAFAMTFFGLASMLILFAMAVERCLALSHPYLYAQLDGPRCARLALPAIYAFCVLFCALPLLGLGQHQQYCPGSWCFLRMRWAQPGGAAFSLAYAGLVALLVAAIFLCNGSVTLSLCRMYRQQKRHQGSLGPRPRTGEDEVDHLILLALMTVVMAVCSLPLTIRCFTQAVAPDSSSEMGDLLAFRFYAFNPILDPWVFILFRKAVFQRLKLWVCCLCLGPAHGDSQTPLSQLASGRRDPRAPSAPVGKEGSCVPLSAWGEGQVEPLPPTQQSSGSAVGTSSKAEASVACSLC
Protocol: as §1

168 GPCRs [16] = target: 168 GPCRs (Homo sapiens, UniProt Q99500)
168 GPCRs (Homo sapiens, UniProt Q99500), sequence (Q99500 whole entry): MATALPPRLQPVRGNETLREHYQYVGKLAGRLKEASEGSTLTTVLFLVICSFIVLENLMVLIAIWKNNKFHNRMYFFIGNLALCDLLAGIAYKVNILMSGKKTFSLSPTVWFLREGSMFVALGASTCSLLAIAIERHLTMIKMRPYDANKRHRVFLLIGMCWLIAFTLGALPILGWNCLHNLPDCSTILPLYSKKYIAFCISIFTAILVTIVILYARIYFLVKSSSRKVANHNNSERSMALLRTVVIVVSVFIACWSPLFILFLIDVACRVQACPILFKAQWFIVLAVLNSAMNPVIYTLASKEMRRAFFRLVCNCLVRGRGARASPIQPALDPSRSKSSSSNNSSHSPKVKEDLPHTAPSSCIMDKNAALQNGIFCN
Protocol: as §1

168 GPCRs [17] = target: 168 GPCRs (Homo sapiens, UniProt P47900)
Protocol: as §1

168 GPCRs [18] = target: 168 GPCRs (Homo sapiens, UniProt O43613)
168 GPCRs (Homo sapiens, UniProt O43613), sequence (O43613 whole entry): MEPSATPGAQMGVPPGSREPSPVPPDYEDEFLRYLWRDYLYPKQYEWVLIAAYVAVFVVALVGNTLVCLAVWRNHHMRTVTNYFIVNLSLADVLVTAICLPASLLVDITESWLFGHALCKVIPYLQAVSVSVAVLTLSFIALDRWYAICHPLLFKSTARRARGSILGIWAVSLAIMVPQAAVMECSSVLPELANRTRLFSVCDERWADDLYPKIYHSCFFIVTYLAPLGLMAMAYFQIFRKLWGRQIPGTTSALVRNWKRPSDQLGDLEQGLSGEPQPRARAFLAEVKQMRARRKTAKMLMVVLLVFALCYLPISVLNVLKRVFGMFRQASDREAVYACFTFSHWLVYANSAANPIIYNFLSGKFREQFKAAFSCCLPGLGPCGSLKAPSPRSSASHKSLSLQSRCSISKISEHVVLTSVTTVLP
Protocol: as §1

168 GPCRs [19] = target: 168 GPCRs (Homo sapiens, UniProt P21728)
Protocol: as §1

[20] = CALCR-RAMP2, read-out: % Activity

168 GPCRs (Homo sapiens, UniProt Q96LB1), sequence (Q96LB1 whole entry): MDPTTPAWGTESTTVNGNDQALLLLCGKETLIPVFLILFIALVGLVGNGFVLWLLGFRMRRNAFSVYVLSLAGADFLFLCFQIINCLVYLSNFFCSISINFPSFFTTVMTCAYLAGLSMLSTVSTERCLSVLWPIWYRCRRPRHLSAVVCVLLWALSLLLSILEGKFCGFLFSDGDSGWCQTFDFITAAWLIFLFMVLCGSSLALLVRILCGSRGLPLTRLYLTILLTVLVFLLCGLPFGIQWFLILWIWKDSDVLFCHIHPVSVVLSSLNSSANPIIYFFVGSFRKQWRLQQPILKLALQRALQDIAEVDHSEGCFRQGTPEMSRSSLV

CNC(C)C(=O)c1ccc2c(c1)OCO2 (stereo not drawn) [methylone, 3,4-methylenedioxy-N-methylcathinone]
activity at 10 µM (168 GPCRs [1]; MRGPRX2, Agonist mode, 10 uM): 0.73%
activity at 1 µM (168 GPCRs [1]; MRGPRX2, Agonist, 1 uM): 1.4%
activity at 1 µM (168 GPCRs [2]; HRH4, Agonist, 1 uM): 8.6%
activity at 10 µM (168 GPCRs [2]; IHRH4, Agonist mode, 10 uM): 9%
activity at 1 µM (168 GPCRs [3]; 1 uM): -0.2%
activity at 10 µM (168 GPCRs [3]; 10 uM): 0.2%
activity at 1 µM (168 GPCRs [4]; [20]): 0.9%
activity at 10 µM (168 GPCRs [4]; [20]): 1.6%
activity at 1 µM (168 GPCRs [4]; CALCR-RAMP3): 7.9%
activity at 10 µM (168 GPCRs [4]; CALCR-RAMP3): 7.1%
activity at 1 µM (168 GPCRs [4]; CALCR, read-out: % Activity): -0.3%
activity at 10 µM (168 GPCRs [4]; CALCR, read-out: % Activity): 0.2%
activity at 1 µM (168 GPCRs [5]; 1 uM): -0.2%
activity at 10 µM (168 GPCRs [5]; 10 uM): -0.6%
activity at 10 µM (168 GPCRs [6]; Agonist mode, 10 uM): -4.4%
activity at 1 µM (168 GPCRs [6]; Agonist, 1 uM): -2.6%
activity at 1 µM (168 GPCRs [7]; 1 uM): -5.8%
activity at 10 µM (168 GPCRs [7]; 10 uM): -6.2%
activity at 10 µM (168 GPCRs [8]; NPBWR2, Agonist mode, 10 uM): 1.35%
activity at 1 µM (168 GPCRs [8]; NPBWR2, Agonist, 1 uM): -0.3%
activity at 10 µM (168 GPCRs [9]; EDG4, Agonist mode, 10 uM): -2.1%
activity at 1 µM (168 GPCRs [9]; EDG4, Agonist, 1 uM): -2.2%
activity at 10 µM (168 GPCRs [10]; TACR1, Agonist mode, 10 uM): -4.4%
activity at 1 µM (168 GPCRs [10]; TACR1, Agonist, 1 uM): -3.9%
activity at 10 µM (168 GPCRs [11]; Agonist mode, 10 uM): -3.7%
activity at 1 µM (168 GPCRs [11]; Agonist, 1 uM): -5.5%
activity at 10 µM (168 GPCRs [12]; Agonist mode, 10 uM): -0.5%
activity at 1 µM (168 GPCRs [12]; Agonist, 1 uM): -0.6%
activity at 10 µM (168 GPCRs [13]; Agonist mode, 10 uM): 2%
activity at 1 µM (168 GPCRs [13]; Agonist, 1 uM): 1.3%
activity at 10 µM (168 GPCRs [14]; Agonist mode, 10 uM): -5.8%
activity at 1 µM (168 GPCRs [14]; Agonist, 1 uM): -2.9%
activity at 10 µM (168 GPCRs [15]; Agonist mode, 10 uM): -2.3%
activity at 1 µM (168 GPCRs [15]; Agonist, 1 uM): -4.4%
activity at 10 µM (168 GPCRs [16]; EDG3, Agonist mode, 10 uM): -8.6%
activity at 1 µM (168 GPCRs [16]; EDG3, Agonist, 1 uM): -9.4%
activity at 10 µM (168 GPCRs [17]; P2RY1, Agonist mode, 10 uM): -4.1%
activity at 1 µM (168 GPCRs [17]; P2RY1, Agonist, 1 uM): 2.2%
activity at 10 µM (168 GPCRs [18]; HCRTR1, Agonist mode, 10 uM): -0.1%
activity at 1 µM (168 GPCRs [18]; HCRTR1, Agonist, 1 uM): -0.1%
activity at 10 µM (168 GPCRs [19]; DRD1, Agonist mode, 10 uM): -1.6%
activity at 1 µM (168 GPCRs [19]; DRD1, Agonist, 1 uM): -1.6%

Source: US12343326B2, “Psychoactive medicines and their use for treating psychiatric and neurological conditions and disorders” (Transcend Therapeutics, Inc., priority 2021, dated 2025)
